Experimental data: US11793801B2, “Treatment of pain and neurological conditions” (BioCorRx, Inc., priority 2020, dated 2023)
Like-named read-outs stand apart in the source and are kept apart here.

Key:
[1] = molecular target: T1, adrenergic receptor Alpha 1B (Homo sapiens, UniProt P35368); assay: in vitro antagonistic activity, adrenergic Alpha 1B; assay type: biochemical
T1 sequence (P35368 1-520): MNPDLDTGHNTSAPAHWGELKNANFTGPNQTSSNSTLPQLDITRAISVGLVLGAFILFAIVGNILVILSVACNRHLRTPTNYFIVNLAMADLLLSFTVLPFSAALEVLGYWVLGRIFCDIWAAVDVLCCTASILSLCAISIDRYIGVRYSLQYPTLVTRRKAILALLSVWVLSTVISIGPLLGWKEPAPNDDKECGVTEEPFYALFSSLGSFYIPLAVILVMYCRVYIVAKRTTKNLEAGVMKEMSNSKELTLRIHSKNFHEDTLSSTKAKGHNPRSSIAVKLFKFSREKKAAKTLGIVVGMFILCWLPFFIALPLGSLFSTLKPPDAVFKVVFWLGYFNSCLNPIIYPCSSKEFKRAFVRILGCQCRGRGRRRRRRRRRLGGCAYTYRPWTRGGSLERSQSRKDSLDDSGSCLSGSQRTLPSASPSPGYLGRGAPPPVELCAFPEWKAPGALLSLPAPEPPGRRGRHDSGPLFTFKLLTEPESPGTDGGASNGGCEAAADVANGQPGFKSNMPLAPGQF

dopamine D4 receptor = molecular target: T2, dopamine D4 receptor (Homo sapiens, UniProt P21917); assay: in vitro antagonistic activity, dopamine D4; assay type: biochemical
T2 sequence (P21917 1-419): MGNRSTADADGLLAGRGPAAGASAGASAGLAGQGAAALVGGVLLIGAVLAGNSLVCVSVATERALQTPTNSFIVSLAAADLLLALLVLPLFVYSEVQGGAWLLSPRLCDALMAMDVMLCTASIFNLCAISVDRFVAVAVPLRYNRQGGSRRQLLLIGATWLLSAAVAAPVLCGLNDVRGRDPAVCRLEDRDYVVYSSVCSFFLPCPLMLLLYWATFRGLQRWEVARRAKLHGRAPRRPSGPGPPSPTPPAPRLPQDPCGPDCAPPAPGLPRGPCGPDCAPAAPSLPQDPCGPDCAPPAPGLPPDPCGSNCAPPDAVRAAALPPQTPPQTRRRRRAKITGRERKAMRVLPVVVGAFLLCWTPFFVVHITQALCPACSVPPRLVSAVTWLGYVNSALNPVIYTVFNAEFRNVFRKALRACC

[2] = molecular target: T3, cholinergic muscarinic receptor 5 (Homo sapiens, UniProt P08912); assay: in vitro antagonistic activity, muscarinic 5; assay type: biochemical
T3 sequence (P08912 1-532): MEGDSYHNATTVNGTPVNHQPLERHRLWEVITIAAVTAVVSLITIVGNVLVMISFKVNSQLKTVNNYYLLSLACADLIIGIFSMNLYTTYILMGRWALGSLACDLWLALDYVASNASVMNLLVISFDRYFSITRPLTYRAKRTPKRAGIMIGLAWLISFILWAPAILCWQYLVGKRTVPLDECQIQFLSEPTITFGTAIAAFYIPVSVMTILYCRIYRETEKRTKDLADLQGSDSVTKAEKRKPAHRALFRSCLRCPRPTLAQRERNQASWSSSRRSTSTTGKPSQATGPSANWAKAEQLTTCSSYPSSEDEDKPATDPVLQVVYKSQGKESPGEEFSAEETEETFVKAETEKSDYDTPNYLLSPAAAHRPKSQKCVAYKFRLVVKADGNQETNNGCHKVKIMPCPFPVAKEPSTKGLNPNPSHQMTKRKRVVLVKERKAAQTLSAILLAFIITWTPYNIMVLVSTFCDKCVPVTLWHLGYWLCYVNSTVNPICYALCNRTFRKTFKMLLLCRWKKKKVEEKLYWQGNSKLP

serotonin receptor 1A = molecular target: T4, serotonin receptor 1A (Homo sapiens, UniProt P08908); assay: in vitro antagonistic activity, serotonin 1A; assay type: biochemical
T4 sequence (P08908 1-422): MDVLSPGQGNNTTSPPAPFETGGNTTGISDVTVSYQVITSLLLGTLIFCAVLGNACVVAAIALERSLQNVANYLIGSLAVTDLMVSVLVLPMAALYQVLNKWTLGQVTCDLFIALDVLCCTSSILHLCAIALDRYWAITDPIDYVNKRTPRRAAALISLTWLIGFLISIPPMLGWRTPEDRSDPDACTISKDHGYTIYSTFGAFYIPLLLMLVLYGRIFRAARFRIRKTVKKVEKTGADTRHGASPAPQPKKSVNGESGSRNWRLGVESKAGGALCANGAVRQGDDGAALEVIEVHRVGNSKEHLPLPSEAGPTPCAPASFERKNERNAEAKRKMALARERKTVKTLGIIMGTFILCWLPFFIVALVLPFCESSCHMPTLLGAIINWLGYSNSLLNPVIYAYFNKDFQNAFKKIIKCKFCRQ

[3] = molecular target: T5, cholinergic muscarinic receptor 4 (Homo sapiens, UniProt P08173); assay: in vitro antagonistic activity, muscarinic 4; assay type: biochemical
T5 sequence (P08173 1-479): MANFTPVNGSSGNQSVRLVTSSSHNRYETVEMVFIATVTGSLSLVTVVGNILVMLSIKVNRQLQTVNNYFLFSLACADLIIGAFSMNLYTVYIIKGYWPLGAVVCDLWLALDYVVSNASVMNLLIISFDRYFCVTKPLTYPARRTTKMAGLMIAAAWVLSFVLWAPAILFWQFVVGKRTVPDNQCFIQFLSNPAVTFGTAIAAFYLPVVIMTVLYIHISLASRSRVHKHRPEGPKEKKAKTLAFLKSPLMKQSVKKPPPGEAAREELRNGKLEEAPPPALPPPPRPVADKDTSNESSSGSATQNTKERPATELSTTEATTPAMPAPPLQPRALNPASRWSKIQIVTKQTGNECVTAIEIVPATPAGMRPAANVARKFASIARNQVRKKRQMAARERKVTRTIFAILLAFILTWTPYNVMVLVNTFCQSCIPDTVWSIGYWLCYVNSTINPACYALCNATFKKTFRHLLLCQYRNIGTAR

[4] = molecular target: T6, adrenergic receptor Alpha 2C (Homo sapiens, UniProt P18825); assay: in vitro antagonistic activity, adrenergic Alpha 2C; assay type: biochemical
T6 sequence (P18825 1-462): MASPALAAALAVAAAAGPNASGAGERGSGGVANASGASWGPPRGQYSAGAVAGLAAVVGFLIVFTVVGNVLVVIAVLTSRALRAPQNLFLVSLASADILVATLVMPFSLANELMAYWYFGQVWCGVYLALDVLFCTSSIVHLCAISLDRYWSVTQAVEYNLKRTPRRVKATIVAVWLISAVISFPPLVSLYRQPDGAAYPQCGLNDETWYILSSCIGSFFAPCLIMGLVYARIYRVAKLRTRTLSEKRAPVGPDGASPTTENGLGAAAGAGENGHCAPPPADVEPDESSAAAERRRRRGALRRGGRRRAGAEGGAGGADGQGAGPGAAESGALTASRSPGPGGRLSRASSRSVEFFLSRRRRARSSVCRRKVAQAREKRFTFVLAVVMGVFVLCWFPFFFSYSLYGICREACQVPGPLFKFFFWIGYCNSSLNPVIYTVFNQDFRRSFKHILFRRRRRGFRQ

Delta (DOP) receptor = Delta (DOP) receptor (Homo sapiens, UniProt P41143); assay: in vitro pharmacology at Delta (DOP) receptor; assay type: biochemical
Delta (DOP) receptor, sequence (P41143 whole entry): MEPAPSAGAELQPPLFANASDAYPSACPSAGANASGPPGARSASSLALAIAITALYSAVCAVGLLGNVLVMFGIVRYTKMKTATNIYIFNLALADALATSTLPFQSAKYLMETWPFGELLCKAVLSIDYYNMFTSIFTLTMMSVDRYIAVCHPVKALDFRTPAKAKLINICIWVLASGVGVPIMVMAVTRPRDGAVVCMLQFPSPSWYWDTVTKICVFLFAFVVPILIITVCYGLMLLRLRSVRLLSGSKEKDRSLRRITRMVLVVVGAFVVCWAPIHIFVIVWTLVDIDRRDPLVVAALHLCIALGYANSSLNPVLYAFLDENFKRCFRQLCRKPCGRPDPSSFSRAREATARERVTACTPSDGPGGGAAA

[5] = molecular target: T7, cholinergic muscarinic receptor 1 (Homo sapiens, UniProt P11229); assay: in vitro antagonistic activity, muscarinic 1; assay type: biochemical
T7 sequence (P11229 1-460): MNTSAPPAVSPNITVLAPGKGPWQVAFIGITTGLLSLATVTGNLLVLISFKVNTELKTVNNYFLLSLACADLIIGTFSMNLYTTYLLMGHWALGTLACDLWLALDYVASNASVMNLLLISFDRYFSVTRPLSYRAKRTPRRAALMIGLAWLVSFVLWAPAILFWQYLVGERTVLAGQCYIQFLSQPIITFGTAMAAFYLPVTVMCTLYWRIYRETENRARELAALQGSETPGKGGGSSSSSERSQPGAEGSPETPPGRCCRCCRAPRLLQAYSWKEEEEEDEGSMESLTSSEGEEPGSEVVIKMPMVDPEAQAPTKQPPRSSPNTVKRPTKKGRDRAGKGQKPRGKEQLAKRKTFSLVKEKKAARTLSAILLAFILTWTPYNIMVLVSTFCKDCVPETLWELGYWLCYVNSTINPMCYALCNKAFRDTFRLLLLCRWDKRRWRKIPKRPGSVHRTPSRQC

[6] = molecular target: cholinergic muscarinic receptor 3 (Homo sapiens, UniProt P20309); assay: in vitro antagonistic activity, muscarinic 3; assay type: biochemical
cholinergic muscarinic receptor 3, sequence (P20309 whole entry): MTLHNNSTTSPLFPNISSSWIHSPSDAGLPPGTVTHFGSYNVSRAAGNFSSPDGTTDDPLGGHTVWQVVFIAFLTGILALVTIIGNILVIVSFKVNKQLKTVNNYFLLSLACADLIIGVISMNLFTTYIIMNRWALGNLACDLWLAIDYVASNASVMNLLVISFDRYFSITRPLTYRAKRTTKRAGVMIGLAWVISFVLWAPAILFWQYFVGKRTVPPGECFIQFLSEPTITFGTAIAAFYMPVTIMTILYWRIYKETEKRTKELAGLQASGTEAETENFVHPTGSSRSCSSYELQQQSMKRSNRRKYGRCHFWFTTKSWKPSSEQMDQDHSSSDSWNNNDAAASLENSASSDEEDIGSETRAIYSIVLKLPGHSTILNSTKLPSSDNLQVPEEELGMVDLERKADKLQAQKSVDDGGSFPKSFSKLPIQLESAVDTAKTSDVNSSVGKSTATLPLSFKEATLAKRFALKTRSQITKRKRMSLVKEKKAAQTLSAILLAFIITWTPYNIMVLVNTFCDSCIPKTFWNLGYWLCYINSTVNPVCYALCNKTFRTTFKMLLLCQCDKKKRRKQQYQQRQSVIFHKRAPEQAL

Sigma opiate sites = assay: in vitro pharmacology at Sigma sites; assay type: binding
[7] = molecular target: T8, adrenergic receptor Alpha 2B (Homo sapiens, UniProt P18089); assay: in vitro antagonistic activity, adrenergic Alpha 2B; assay type: biochemical
T8 sequence (P18089 1-450): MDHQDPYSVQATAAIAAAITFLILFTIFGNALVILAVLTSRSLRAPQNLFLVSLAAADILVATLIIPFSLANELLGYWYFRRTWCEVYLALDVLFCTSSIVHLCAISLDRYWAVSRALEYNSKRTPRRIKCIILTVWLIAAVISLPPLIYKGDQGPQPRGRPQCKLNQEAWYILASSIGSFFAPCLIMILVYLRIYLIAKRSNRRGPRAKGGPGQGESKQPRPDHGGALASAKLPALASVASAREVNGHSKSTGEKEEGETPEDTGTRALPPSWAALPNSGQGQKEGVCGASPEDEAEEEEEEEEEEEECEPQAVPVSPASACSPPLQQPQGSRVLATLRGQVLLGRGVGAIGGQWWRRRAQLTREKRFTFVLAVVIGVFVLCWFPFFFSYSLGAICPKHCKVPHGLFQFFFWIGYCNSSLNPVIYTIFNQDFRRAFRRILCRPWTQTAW

morphine addicted rats = assay: opioid withdrawal signs in morphine addicted rats; assay type: in vivo
histamine H1 receptor = histamine H1 receptor (Homo sapiens, UniProt P35367); assay: in vitro antagonistic activity, histamine H1; assay type: biochemical
histamine H1 receptor, sequence (P35367 whole entry, species assumed): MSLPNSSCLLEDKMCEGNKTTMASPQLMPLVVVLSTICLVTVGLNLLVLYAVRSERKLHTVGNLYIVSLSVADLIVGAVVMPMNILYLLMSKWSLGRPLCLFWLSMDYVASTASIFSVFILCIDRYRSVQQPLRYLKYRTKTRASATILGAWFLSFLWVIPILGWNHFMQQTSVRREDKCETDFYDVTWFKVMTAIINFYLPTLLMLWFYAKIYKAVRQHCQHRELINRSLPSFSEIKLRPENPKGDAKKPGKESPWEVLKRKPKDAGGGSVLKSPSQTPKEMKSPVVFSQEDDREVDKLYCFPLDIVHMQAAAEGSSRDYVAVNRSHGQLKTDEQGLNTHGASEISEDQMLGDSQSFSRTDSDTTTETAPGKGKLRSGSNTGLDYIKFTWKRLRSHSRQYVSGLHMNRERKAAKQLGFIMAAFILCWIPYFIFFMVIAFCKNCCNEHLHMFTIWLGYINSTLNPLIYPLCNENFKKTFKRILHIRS

| SMILES | activity at adrenergic receptor Alpha 1B [1] | activity at dopamine D4 receptor (dopamine D4 receptor) | activity at cholinergic muscarinic receptor 5 [2] | activity at serotonin receptor 1A (serotonin receptor 1A) | activity at cholinergic muscarinic receptor 4 [3] | activity at adrenergic receptor Alpha 2C [4] | Receptor Delta (DOP): mode of action (Delta (DOP) receptor) | activity at cholinergic muscarinic receptor 1 [5] | activity at cholinergic muscarinic receptor 3 [6] | Receptor Sigma: affinity (Sigma opiate sites) | Receptor Sigma: affinity (Sigma opiate sites; listed as compound 1) | activity at adrenergic receptor Alpha 2B [7] | opioid withdrawal signs (morphine addicted rats) | activity at histamine H1 receptor (histamine H1 receptor) |
| --- | --- | --- | --- | --- | --- | --- | --- | --- | --- | --- | --- | --- | --- | --- |
| CCC(=O)NC1CC(C)N(CCc2ccccc2)CC1C (centres unmarked) [Compound 1, N-[2,5-dimethyl-1-(2-phenylethyl)piperidin-4-yl]propanamide] | antagonistic activity | antagonistic activity | antagonistic activity | antagonistic activity | antagonistic activity | antagonistic activity | Antagonist | antagonistic activity | antagonistic activity | High Affinity | further activity | antagonistic activity | few if any opioid withdrawal signs | antagonistic activity |
| O=C1CC[C@@]2(O)[C@H]3Cc4ccc(O)c5c4[C@@]2(CCN3CC2CC2)[C@H]1O5 [Naltrexone, reference compound] |  |  |  |  |  |  |  |  |  | Weak |  |  |  |  |
| C=CCN1CC[C@]23c4c5ccc(O)c4O[C@H]2C(=O)CC[C@@]3(O)[C@H]1C5 [Naloxone, reference compound] |  |  |  |  |  |  |  |  |  | Weak |  |  | withdrawal effects |  |
